Source: patent US12590126B2, “Compounds for selective disruption of protein-protein interactions” (SyntheX, Inc., priority 2017, dated 2026)
Entries after “also recorded” stand apart in the source; their conditions may differ. Like-named read-outs stand apart in the source and are kept apart here. Where a SMILES comes first, the peptide text is derived from it. [ ]: non-standard residue; d: D form. 2Nal = N[C@@H](Cc1ccc2ccccc2c1)C(=O)O; dNle = CCCC[C@@H](N)C(=O)O; βAla = NCCC(=O)O

Experiments:
[1] = test system: fresh human RBCs; type: cell-based
Procedure: To assess the nonspecific lytic properties of each compounds disclosed herein, each mentioned compound was tested for hemolytic properties against fresh human RBCs. Briefly, donor blood was drawn into a K2EDTA anticoagulant tube from multiple O+ donors. The blood was washed 3 times in PBS. RBCs were diluted to 2% in PBS and compounds were added at various concentrations. Samples were incubated at 37 C for 1 hr, then centrifuged at 2200 rpm for 5 min. Supernatants were measured for absorbance at 450 nm or 405 nm. The percentage hemolysis was calculated as lysis relative to 1% Triton X-100 incubation.

[2] = test system: A549 cells; assay: Intracellular calcium imaging with Fluo-2-AM; type: cell-based; settings: 30 μM compound, pre-incubation with 2.5 μM Fluo-2-AM
Text: Timestamps for the duration of the experiment are indicated in each panel.

[3] = test system: primary fibroblasts; assay: Selective killing, Cytation imaging of primary fibroblasts; type: cell-based; settings: 10 μM, approx. 5 minute time points
Procedure: (§1) To assess the specificity of compounds disclosed herein in targeting cancers with overexpression of RAD51, Compound 1 was tested against primary fibroblasts and SSP25 cells (cholangiocarcinoma cell line) (FIG. 5). First, 5,000 cells were incubated in 96-well culture plates overnight. Cells were grown in DMEM or RPMI, respectively, with 10% FBS, and […] was added to a concentration of 10 μM and imaging commenced using a Cytation™ instrument using approximately 5 minute time points. DAPI was used to visualize the nuclei and mitotracker-red was used to observe mitochondria. […] Furthermore, cell morphology was affected within 5 minutes of imaging, and the macrobubble phenotype was stable for further periods of time.

[4] = test system: SSP-25 cells; assay: xCELLigence cell death assay in SSP-25 cells (cellular assay for RAD51 inhibition); type: cell-based; settings: concentration gradient added at 20 hour mark, only values with R^>0.85 shown
[5] = test system: SSP25 cells; assay: xCELLigence cell death assay with intracellular calcium chelators; type: cell-based; settings: relative to compound alone; for cell death with added calcium chelator BAPTA-AM: 10 μM compound + 10 μM BAPTA-AM; for cell death with added calcium chelator ruthenium red: 10 μM compound + 40 μM Ruthenium red
Procedure: To investigate the hypothesis that peptide treatment of cells causes cell death via increases in intracellular free calcium levels, Compound 1 alone and in combination with two different intracellular calcium chelators (1,2-Bis(2-aminophenoxy)ethane-N,N,N′,N′-tetraacetic acid tetrakis(acetoxymethyl ester) aka “BAPTA-AM”, and ammoniated ruthenium oxychloride aka “ruthenium red”) was tested in an xCELLigence™ cell death assay as in Example 1. The intracellular calcium chelators alone were also evaluated on the cells.

[6] = test system: A549 cells; assay: A549 cell growth/death, xCELLigence and microscopy; type: cell-based; settings: xCELLigence, concentration gradient
Procedure: To assess the growth inhibitory properties of compounds disclosed herein, 10 μM of Compound 1 was tested against a PBS mock treatment for growth of A549 cells using microscopy at the indicated timepoints shown in the top right corner of each panel of FIG. 2. […] First, 5,000 A549 cells were plated, and adherence and growth was measured for 20 hours using live measurements of current impedance through the plate using the xCELLigence™ instrument. At the […] mark, a concentration gradient of Compound 1 or a PBS control was added to the A549 cells, which were cultured in 100 μL DMEM media with 10% FBS.

[7] = Mouse pharmacokinetics, IV and IP dosing; type: in vivo, mice
Procedure: The pharmocokinetic parameters in mice by both intravenous (IV) and intraperitoneal (IP) dosing, as well as the serum and microsome stability for each of compound 22, 23, 24, and 25 was determined. Bioanalytical methods were developed for each compound using an LC-MS/MS method with LLOQ>100 ng/ml.
For in-vivo PK work, at least 3 mice were used per timepoint. For each compound, the animals were injected either IV or IP with the compound. IV injections used 1 mg/kg, and IP injections were at 15 mg/kg. Blood was collected at the indicated timepoints and analyzed according to the bioanalytical method developed.

[8] = in vitro; settings: mouse, microsomes
Procedure: (§2) For HLM and MLM stability studies, each compound was incubated with the liver microsome mixture for up to an hour at 37 C in the presence of NADPH.
(§3) After the incubations, the reactions were stopped and the compounds were analyzed according to the method developed for each.

[9] = in vitro; settings: mouse, serum
Procedure: Serum stability data was obtained using the appropriate animal serum, each incubated with the compound for up to two hours at 37 C.

[10] = in vitro; settings: human, microsomes
Procedure: as §2, §3

[11] = test system: A549 xenograft; assay: A549 xenograft in athymic nude mice, compound 22; type: in vivo; settings: 15 mpk IP every other day
Procedure: The anti-cancer activity of compound 22 was assessed in an A549 xenograft model in a method similar to Example 4. Briefly, A549 cells were implanted into athymic nude female mice. Tumors were allowed to grow to 100 mm^3 before initiation of dosing. Mice were randomly distributed into dosing groups with at least 3 animals per group. Mice were dosed using 15 mpk TP injections every other day.
Tumor volumes and mouse weights were recorded at the indicated timepoints. Terminal tumors were excised and weighed (N=3 for each group).

[12] = test system: SSP25 cells; assay: xCELLigence cell death assay with necroptosis or apoptosis inhibitor; type: cell-based; settings: for cell death with added necroptosis inhibitor Necrostatin: 40 μM compound + 50 μM Necrostatin; for cell death with added apoptosis inhibitor z-VAD: 40 μM compound + 100 μM z-VAD
Procedure: Further experiments were performed to elucidate the method of cell death induced by Compound 1. In one experiment, xCELLIGENCE cell death assays as in Examples 1 and 5 were performed, treating with either a necroptosis inhibitor (Necrostatin, 50 μM) alone or in combination with Compound 1 (40 μM). In another experiment, xCELLIGENCE cell death assays as in Examples 1 and 5 were performed, treating with either a apoptosis inhibitor (z-VAD, 100 μM) alone or in combination with Compound 1 (40 μM).

[13] = test system: SSP25 cells; assay: Selective killing, Cytation imaging of SSP25 cells; type: cell-based; settings: 10 μM
Procedure: as §1

[14] = test system: A549 xenograft; assay: A549 xenograft in athymic nu/nu mice, Compound 1 IT and IP; type: in vivo; settings: for tumor volume / size, intra-tumoral dosing: 50 microliters of 10 or 20 mg/ml IT, day 0, day 3 and every other day
Procedure: Female athymic nu/nu mice (6-8 weeks old) were purchased from Simonsen labs (n=12) and were housed at the Murigenics vivarium in Vallejo. The mice were acclimated to the setting of the vivarium for 5 days and maintained on a standard chow diet; 12:12 dark/light cycle; and group housed (3 mice per cage) in HEPA-filtered cages. After acclimation, each mouse was injected subcutaneously (lower left abdominal flank) with 5×10^6 A549 (ATCC: CCL-185) cells mixed with 1:1 (v/v) with Matrigel solution. When the tumors reached a volume of—100 mm3, the mice were divided into separate treatment groups for the desired treatments. Experiments using both intra-tumoral (IT) and intraperitoneal (IP) administration were performed and the data are reported in FIGS. 10 and 11.
Mice prepared as described above were divided into 4 groups: • Group 1: received an intra-tumoral injection of 50 microliters of Phosphate Buffered Saline (mock) (n=3) • Group 2: received an intra-tumoral injection of 50 microliters of 10 mg/ml Compound 1 in Phosphate Buffered Saline (n=3) • Group 3: received an intra-tumoral injection of 50 microliters of 20 mg/ml Compound 1 in Phosphate Buffered Saline (n=3)
The 50 microliter injections were carried out with a (30 g needle). The injections were administered on day zero and then again on day 3, and every other day. The length (L) and the width (W) of the tumor mass was measured with a Vernier caliper and the tumor volume (V) was calculated as V=(L×WA2)/2. The relative tumor volume of each tumor mass on each measurement day was normalized against the initial volume of the same mass on day zero right before initiation of injections. […]
The injections were carried out with a 30 g needle. […] The length (L) and the width (W) of the tumor mass was measured with a Vernier caliper and the tumor volume (V) was calculated as V=(L×WA2)/2. […]

CSCC[C@@H](NC(=O)[C@@H](CC(C)C)NC(C)=O)C(=O)N[C@H](CCCNC(=N)N)C(=O)N[C@H](CO)C(=O)N[C@H](CCC(N)=O)C(=O)N[C@H](CCCNC(=N)N)C(=O)N[C@H](CC(C)C)C(=O)N[C@H](CCCNC(=N)N)C(=O)N[C@H](CCC(N)=O)C(=O)NCC(=O)N[C@H](CC(C)C)C(=O)N[C@H](CCCNC(=N)N)C(=O)N[C@H](CCCCN)C(=O)N[C@H](CCCNC(=N)N)C(=O)N[C@H](CCCNC(=N)N)C(=O)N[C@H](CCCNC(=N)N)C(=O)N[C@H](CCCNC(=N)N)C(=O)N[C@H](CCCNC(=N)N)C(=O)N[C@H](CCCNC(=N)N)C(=O)N[C@H](CCCNC(=N)N)C(N)=O [Compound 2, Ac-lmrsqrlrqGlrkrrrrrrr-NH2]
% Hemolysis (250 uM) ([1]; red cells of human, 1 h, 250): 1%
intracellular calcium (Fluo-2 dye) [2]: shows accumulation in response to treatment
cell morphology / cell death in primary fibroblasts [3]: little cell death is generated in the primary fibroblast cells compared to the SSP25 cells
IC50 [4]: 4220 µM
cell death with added calcium chelator BAPTA-AM [5]: able to counteract the cell-death inducing effects
cell death with added calcium chelator ruthenium red [5]: able to counteract the cell-death inducing effects
effect on growth / cell death of A549 cells [6]: rapid cell death (decrease in cell index)

CCCC[C@@H](NC(=O)[C@@H](CC(C)C)NC(C)=O)C(=O)N[C@H](CCCNC(=N)N)C(=O)NCCC(=O)N[C@@H](C(=O)N[C@H](CCCNC(=N)N)C(=O)N[C@H](CC(C)C)C(=O)N[C@H](CCCNC(=N)N)C(=O)N[C@@H](C(=O)NCCC(=O)N[C@H](CC(C)C)C(=O)N[C@H](CCCNC(=N)N)C(=O)N[C@H](CCCCN)C(=O)N[C@H](CCCNC(=N)N)C(=O)N[C@H](CCCNC(=N)N)C(=O)N[C@H](CCCNC(=N)N)C(=O)N[C@H](CCCNC(=N)N)C(=O)N[C@H](CCCNC(=N)N)C(=O)NCC(=O)N[C@@H](Cc1ccc2ccccc2c1)C(N)=O)C(C)C)C(C)C [Compound 22, Ac-l{d-norLeucine}r[beta-ALA]vrlrv[beta-ALA]lrkrrrrrGΦ-NH2] (Ac-[dL][dNle][dR][βAla][dV][dR][dL][dR][dV][βAla][dL][dR][dK][dR][dR][dR][dR][dR]G[2Nal]-NH2)
% Hemolysis (250 uM) ([1]; red cells of human, 1 h, 250): 5%
AUC Extr ([7]; 1 mg/kg IV): 19.8%
Vss ([7]; 15 mg/kg IP): 1.19 L/kg
AUC(0-inf) ([7]; in vivo, 1 mg/kg IV): 79.3 ng·h/mL
AUC(0-t) ([7]; in vivo, 1 mg/kg IV): 63.9 ng·h/mL
C0 ([7]; in vivo, 1 mg/kg IV): 514 ng/mL
MRT inf ([7]; in vivo, 1 mg/kg IV): 0.158 h
clearance ([7]; in vivo, 1 mg/kg IV): 222 mL/min/kg
AUC(0-inf) ([7]; in vivo, 15 mg/kg IP): 463 ng·h/mL
MRT inf ([7]; in vivo, 15 mg/kg IP): 48.3 h
half-life ([7]; in vivo, ip, 15 mg/kg, 15 mg/kg IP, read-out: t½ (converted)): 36.3 min
half-life ([7]; in vivo, ip, 15 mg/kg, IP (15 mg/kg), read-out: Half-life Mouse IP): 36.3 min
Vd ([7]; in vivo, iv, 1 mg/kg, 1 mg/kg IV, read-out: Vss): 1.87 L/kg
Vd ([7]; in vivo, iv, 1 mg/kg, 1 mg/kg IV, read-out: Vz): 2.04 L/kg
half-life ([7]; in vivo, iv, 1 mg/kg, 1 mg/kg IV, read-out: t½ (converted)): 7.14 min
half-life ([7]; in vivo, iv, 1 mg/kg, IV (1 mg/kg), read-out: Half-life Mouse IV): 7.16 min
half-life [8]: > 500 min
half-life [9]: > 500 min
IC50 [4]: 18 µM
half-life [10]: 365 min
tumor growth [11]: effective to reduce tumor growth

Ac-lmrsvrlrvGlrkrrrrrrr-NH2 (Ac-[dL][dM][dR][dS][dV][dR][dL][dR][dV]G[dL][dR][dK][dR][dR][dR][dR][dR][dR][dR]-NH2) [Compound 1]
% Hemolysis (250 uM) [1]: 3%
cell death with added necroptosis inhibitor Necrostatin [12]: addition of the inhibitor has no effect on the activity
cell death with added necroptosis inhibitor Necrostatin ([12]; listed as compound 1): does not cause cell death through necroptosis or apoptosis
cell death with added apoptosis inhibitor z-VAD [12]: addition of the inhibitor has no effect on the activity
cell death with added apoptosis inhibitor z-VAD ([12]; listed as compound 1): does not cause cell death through necroptosis or apoptosis
intracellular calcium (Fluo-2 dye) [2]: accumulation of intracellular calcium
IC50 [4]: 2.4 µM
time until cell morphology was affected [13]: ≤ 5 minutes
cell morphology / cell death in SSP25 cells ([13]; approx. 5 minute time points): drastically affected in SSP25 cells
tumor volume / size, intra-tumoral dosing [14]: measurable decreases in tumor size as early as day 3
tumor volume / size, intra-tumoral dosing ([14]; listed as compound 1): significant effects on tumor volume after only a few days of treatment
tumor size, intra-peritoneal dosing ([14]; 125 microliters of 3 mg/ml IP, single dose on day seven): measurable decreases in tumor size as early as 3 days after injection (day 10)
cell death with added calcium chelator BAPTA-AM [5]: rescues cell death relative to compound alone; also recorded: addition of BAPTA-AM rescues cell death
cell death with added calcium chelator ruthenium red [5]: rescues cell death relative to compound alone; also recorded: addition of ruthenium red rescues cell death
effect on growth / cell death of A549 cells [6]: dose-dependent effect on the growth of A549 cells displaying acute cell death kinetics
